Reference: US8150136B2, “Image based quantitation of molecular translocation” (Amnis Corporation, priority 2005, dated 2012)

Tested on: NF-κB nuclear translocation in THP-1 cells
Experiment: LPS-induced nuclear translocation of NF-κB in THP-1 cells, multispectral imaging flow cytometry (ImageStream), NF-κB/7-AAD Similarity
Type: cell-based, human
Procedure: Untreated (a) and LPS treated (b) THP-1 cells were prepared as described in FIG. 4 and imaged in flow using the ImageStream 100 platform. […] Each gated population has an associated image gallery that can be visually inspected. The image galleries here display the NF-κB image adjacent to a composite image (green NF-κB/red 7-ADD) for each object within a given population.
In order to quantitate the extent of NF-κB nuclear translocation in A-549 cells treated with TNF-α/IL-β, the degree of pixel intensity between the NF-κB and nuclear images of cell within a masked region of interest was analyzed. The NF-κB image of a cell with a high degree of translocation will look qualitatively similar to the nuclear image of that cell, resulting in a high degree of correlation between the two images. In contrast, the NF-κB image of a cell without any translocation will have little signal in the nuclear space, resulting in an inverse correlation with the nuclear image. […] Two features were calculated, the correlation coefficient (ρ) and, in this case, similarity is calculated as a logarithmic transformation of ρ, which features are represented by the following formula, respectively: ρ(X,Y)=Cov(X,Y)/(σX σY) Similarity=ln(1+ρ)/(1−ρ) As set forth herein, ρ measures the degree to which the spatial distribution of intensities over two separate images is correlated, with a range from −1 (inverse correlation) to +1 (complete correlation). Here, similarity values range from −∞ to +∞, allowing standard statistical comparisons (means and standard deviations) between groups to be made. Histogram overlays of NF-κB/7-AAD correlation and similarity allows the differentiation of untreated (green) A-549 cells from TNF-α/IL-1β treated (red) A-549 cells. As described herein, the fidelity of these classifiers can be validated by inspection of the image galleries of the cells. Mask Determination
By way of background and […], NF-κB resides predominantly in the cytoplasm in resting cells. Activating treatments (e.g., IL-1β/TNF-α or LPS) induce NF-κB translocation into the nucleus in responsive cell types. Thus, the ratio of nuclear to cytoplasmic NF-κB increases with LPS treatment. Similar to the A-549 cells, NF-κB is translocated from the cytoplasm to the nucleus when the non-adherent human monocyte cell line, THP-1, is exposed to lipopolysaccharide (LPS). […] A nuclear and NF-κB pixel signal correlation analysis CCF was used to quantitate the difference between untranslocated NF-κB and NF-κB translocated to the cell nucleus. The CCF distinguished location-specific (nuclear and cytoplasmic) quantitation of NF-κB to distinguish LPS-treated from untreated THP-1 cells. Thus, the methods of the present disclosure may also be used with non-adherent cells and cell lines.
Human monocyte cell line THP-1, obtained from ATCC (Rockville, Md.), were maintained in RPMI 1640 (Gibco, Grand Island, N.Y.) containing 5% fetal bovine serum, 1 mM sodium pyruvate (Mediatech, Herndon, Va.), 100 μM nonessential amino acids, 100 U/ml penicillin, 100 μg/ml streptomycin, and 2 mM L-glutamine (BioWhittaker, Walkersville, Md.) in 5% CO2 atmosphere at 37° C. The density of exponentially growing cells was less than 3×10^5 cells per ml at the time of all treatments. To induce NF-κB translocation into the nucleus from the cytoplasm, cells were treated for 1 hr with LPS.
The following is the experimental procedure for LPS-induced Nuclear Translocation of NF-κB in THP-1 cells. […]

Lipopolysaccharide [LPS]
NF-κB/7-AAD Similarity value (median similarity value) of translocated cells (LPS treated THP-1 cells, 'High Similarity' (translocated) gated population, untreated: 2.98 +/−0.35): 3.35 +/−0.48 | NF-κB/7-AAD Similarity value of untranslocated cells (LPS treated THP-1 cells, 'Low Similarity' (untranslocated) gated population, untreated: −1.36 +/−0.84): −0.76 +/−0.64 | percentage of Medium Similarity cells (LPS treated THP-1 cells, diffuse NF-κB staining pattern, untreated 3.6%): 27.6% | percentage of NF-κB-translocated cells (LPS treated THP-1 cells, untreated 0.71%): 44.6% | nuclear localization of NF-κB by CCF, treated versus untreated cells (THP-1 cells, LPS-treated vs untreated): a quantifiable difference in the nuclear localization NF-κB is demonstrated
